Experimental data: publication PMC12090182, “Repurposing of the RIPK1-Selective Benzo[1,4]oxazepin-4-one Scaffold for the Development of a Type III LIMK1/2 Inhibitor” (ACS Chemical Biology, 2025)

What was measured:
Assay in all cases: biochemical
Type in all cases: binding
[1] = biological target: 468 kinases including some pathogenic mutants (Homo sapiens, UniProt O00329); details: PIK3CD (Entrez PIK3CD), 100 nM; read-out: Percent Control
[2] = biological target: 468 kinases including some pathogenic mutants (Homo sapiens, UniProt O00750); details: PIK3C2B (Entrez PIK3C2B), 1000 nM; read-out: Percent Control
[3] = biological target: 468 kinases including some pathogenic mutants (Homo sapiens, UniProt O15530); details: PDPK1 (Entrez PDPK1), 100 nM; read-out: Percent Control
[4] = biological target: 468 kinases including some pathogenic mutants (Homo sapiens, UniProt P00519, Q252H)
[5] = biological target: 468 kinases including some pathogenic mutants (Homo sapiens, UniProt P04049); details: RAF1 (Entrez RAF1), 1000 nM; read-out: Percent Control
[6] = biological target: 468 kinases including some pathogenic mutants (Homo sapiens, UniProt P04629); details: TRKA (Entrez NTRK1), 100 nM; read-out: Percent Control
[7] = biological target: 468 kinases including some pathogenic mutants (Homo sapiens, UniProt P07949, M918T); details: read-out: Percent Control
[8] = biological target: 468 kinases including some pathogenic mutants (Homo sapiens, UniProt P08922); details: ROS1 (Entrez ROS1), 100 nM; read-out: Percent Control
[9] = biological target: 468 kinases including some pathogenic mutants (Homo sapiens, UniProt P10721, L576P); details: read-out: Percent Control
Chain of 468 kinases including some pathogenic mutants (Homo sapiens, UniProt P10721, L576P) (P10721 26-976 L576P): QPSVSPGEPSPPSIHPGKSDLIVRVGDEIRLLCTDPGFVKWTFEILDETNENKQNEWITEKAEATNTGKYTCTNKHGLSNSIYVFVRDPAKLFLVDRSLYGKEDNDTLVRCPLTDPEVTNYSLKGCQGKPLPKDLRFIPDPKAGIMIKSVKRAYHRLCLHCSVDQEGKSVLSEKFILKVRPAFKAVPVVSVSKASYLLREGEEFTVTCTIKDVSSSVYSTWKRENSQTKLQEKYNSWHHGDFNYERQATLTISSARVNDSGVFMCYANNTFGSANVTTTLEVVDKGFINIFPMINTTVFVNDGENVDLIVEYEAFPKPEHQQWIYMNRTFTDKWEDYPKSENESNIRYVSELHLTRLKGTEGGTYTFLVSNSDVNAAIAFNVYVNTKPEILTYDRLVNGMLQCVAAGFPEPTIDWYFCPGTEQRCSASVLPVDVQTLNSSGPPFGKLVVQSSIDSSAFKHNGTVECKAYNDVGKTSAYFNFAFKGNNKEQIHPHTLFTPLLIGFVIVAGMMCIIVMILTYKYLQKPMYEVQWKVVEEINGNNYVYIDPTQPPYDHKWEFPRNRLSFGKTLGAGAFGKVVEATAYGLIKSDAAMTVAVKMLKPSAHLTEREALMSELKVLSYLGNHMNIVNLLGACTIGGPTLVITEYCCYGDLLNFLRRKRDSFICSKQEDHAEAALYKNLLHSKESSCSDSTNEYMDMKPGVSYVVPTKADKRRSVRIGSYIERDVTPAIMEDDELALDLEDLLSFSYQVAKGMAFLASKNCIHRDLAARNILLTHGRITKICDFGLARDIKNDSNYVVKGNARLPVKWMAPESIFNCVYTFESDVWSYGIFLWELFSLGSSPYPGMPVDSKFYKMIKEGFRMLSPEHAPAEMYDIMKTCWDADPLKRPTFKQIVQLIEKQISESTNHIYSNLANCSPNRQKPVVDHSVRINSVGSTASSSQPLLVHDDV

[10] = biological target: 468 kinases including some pathogenic mutants (Homo sapiens, UniProt P36894); details: BMPR1A (Entrez BMPR1A), 100 nM; read-out: Percent Control
[11] = biological target: 468 kinases including some pathogenic mutants (Homo sapiens, UniProt P37173); details: TGFBR2 (Entrez TGFBR2), 1000 nM; read-out: Percent Control
[12] = biological target: 468 kinases including some pathogenic mutants (Homo sapiens, UniProt P42345); details: MTOR (Entrez MTOR), 1000 nM; read-out: Percent Control
[13] = biological target: 468 kinases including some pathogenic mutants (Homo sapiens, UniProt P49336); details: CDK8 (Entrez CDK8), 100 nM; read-out: Percent Control
[14] = biological target: 468 kinases including some pathogenic mutants (Homo sapiens, UniProt P53779); details: JNK3 (Entrez MAPK10), 100 nM; read-out: Percent Control
Chain of 468 kinases including some pathogenic mutants (Homo sapiens, UniProt P53779) (P53779 whole entry, change not shown): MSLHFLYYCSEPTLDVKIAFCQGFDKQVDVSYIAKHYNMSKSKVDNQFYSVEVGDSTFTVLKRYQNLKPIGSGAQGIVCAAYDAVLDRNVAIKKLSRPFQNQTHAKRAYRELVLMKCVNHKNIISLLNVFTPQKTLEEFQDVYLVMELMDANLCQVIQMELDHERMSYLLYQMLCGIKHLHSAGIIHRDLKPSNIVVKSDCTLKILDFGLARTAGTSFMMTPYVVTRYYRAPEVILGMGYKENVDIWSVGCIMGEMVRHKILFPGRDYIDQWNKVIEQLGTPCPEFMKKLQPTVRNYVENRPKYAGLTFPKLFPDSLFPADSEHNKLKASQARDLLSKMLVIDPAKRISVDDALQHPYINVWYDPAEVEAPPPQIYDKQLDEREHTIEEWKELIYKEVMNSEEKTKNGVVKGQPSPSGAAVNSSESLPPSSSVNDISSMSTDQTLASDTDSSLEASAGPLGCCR

[15] = biological target: 468 kinases including some pathogenic mutants (Homo sapiens, UniProt Q13153); details: PAK1 (Entrez PAK1), 100 nM; read-out: Percent Control
Chain of 468 kinases including some pathogenic mutants (Homo sapiens, UniProt Q13153) (Q13153 whole entry, change not shown): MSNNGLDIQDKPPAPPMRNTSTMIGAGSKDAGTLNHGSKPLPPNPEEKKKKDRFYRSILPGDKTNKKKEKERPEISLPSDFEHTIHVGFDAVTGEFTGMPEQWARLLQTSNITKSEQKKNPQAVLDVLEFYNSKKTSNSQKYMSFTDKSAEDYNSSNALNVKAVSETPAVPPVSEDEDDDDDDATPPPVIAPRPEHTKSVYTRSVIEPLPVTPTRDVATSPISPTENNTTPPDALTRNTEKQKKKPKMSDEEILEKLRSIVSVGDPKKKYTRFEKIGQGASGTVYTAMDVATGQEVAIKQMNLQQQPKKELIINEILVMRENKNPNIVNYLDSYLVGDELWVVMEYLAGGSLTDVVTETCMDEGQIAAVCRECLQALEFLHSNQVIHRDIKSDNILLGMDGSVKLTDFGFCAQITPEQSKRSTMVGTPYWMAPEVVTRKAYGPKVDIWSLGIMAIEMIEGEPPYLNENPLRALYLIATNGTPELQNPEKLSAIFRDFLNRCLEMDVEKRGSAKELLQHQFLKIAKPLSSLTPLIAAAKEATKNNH

[16] = biological target: 468 kinases including some pathogenic mutants (Homo sapiens, UniProt Q13163); details: MEK5 (Entrez MAP2K5), 100 nM; read-out: Percent Control
[17] = biological target: 468 kinases including some pathogenic mutants (Homo sapiens, UniProt Q15569); details: TESK1 (Entrez TESK1), 100 nM; read-out: Percent Control
[18] = biological target: 468 kinases including some pathogenic mutants (Homo sapiens, UniProt Q86V86); details: PIM3 (Entrez PIM3), 100 nM; read-out: Percent Control
[19] = biological target: 468 kinases including some pathogenic mutants (Homo sapiens, UniProt Q86YV6); details: MYLK4 (Entrez MYLK4), 1000 nM; read-out: Percent Control
[20] = biological target: 468 kinases including some pathogenic mutants (Homo sapiens, UniProt Q8TDX7); details: NEK7 (Entrez NEK7), 100 nM; read-out: Percent Control
[21] = biological target: 468 kinases including some pathogenic mutants (Homo sapiens, UniProt Q8WTQ7); details: GRK7 (Entrez GRK7), 100 nM; read-out: Percent Control
[22] = biological target: 468 kinases including some pathogenic mutants (Homo sapiens, UniProt Q8WXR4); details: MYO3B (Entrez MYO3B), 100 nM; read-out: Percent Control
[23] = biological target: 468 kinases including some pathogenic mutants (Homo sapiens, UniProt Q96Q40); details: PFTAIRE2 (Entrez CDK15), 100 nM; read-out: Percent Control
[24] = biological target: 468 kinases including some pathogenic mutants (Homo sapiens, UniProt Q96SB4); details: SRPK1 (Entrez SRPK1), 100 nM; read-out: Percent Control
[25] = biological target: 468 kinases including some pathogenic mutants (Homo sapiens, UniProt Q9BYT3); details: STK33 (Entrez STK33), 1000 nM; read-out: Percent Control
Chain of 468 kinases including some pathogenic mutants (Homo sapiens, UniProt Q9BYT3) (Q9BYT3 whole entry, change not shown): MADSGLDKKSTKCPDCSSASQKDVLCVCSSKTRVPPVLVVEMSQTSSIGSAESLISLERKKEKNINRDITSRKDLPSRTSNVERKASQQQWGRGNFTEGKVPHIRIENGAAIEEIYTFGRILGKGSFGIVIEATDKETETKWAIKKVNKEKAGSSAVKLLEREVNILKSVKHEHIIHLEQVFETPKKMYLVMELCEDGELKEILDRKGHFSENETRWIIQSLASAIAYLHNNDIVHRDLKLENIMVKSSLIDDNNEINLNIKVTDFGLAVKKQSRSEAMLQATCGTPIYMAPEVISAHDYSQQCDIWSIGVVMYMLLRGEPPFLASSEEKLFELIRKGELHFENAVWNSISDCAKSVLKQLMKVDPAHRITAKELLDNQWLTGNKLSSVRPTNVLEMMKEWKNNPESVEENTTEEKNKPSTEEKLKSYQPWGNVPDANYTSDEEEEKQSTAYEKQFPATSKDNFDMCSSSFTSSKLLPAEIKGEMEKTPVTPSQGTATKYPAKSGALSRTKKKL

[26] = biological target: 468 kinases including some pathogenic mutants (Homo sapiens, UniProt Q9Y2H1); details: NDR2 (Entrez STK38L), 100 nM; read-out: Percent Control
Chain of 468 kinases including some pathogenic mutants (Homo sapiens, UniProt Q9Y2H1) (Q9Y2H1 whole entry, change not shown): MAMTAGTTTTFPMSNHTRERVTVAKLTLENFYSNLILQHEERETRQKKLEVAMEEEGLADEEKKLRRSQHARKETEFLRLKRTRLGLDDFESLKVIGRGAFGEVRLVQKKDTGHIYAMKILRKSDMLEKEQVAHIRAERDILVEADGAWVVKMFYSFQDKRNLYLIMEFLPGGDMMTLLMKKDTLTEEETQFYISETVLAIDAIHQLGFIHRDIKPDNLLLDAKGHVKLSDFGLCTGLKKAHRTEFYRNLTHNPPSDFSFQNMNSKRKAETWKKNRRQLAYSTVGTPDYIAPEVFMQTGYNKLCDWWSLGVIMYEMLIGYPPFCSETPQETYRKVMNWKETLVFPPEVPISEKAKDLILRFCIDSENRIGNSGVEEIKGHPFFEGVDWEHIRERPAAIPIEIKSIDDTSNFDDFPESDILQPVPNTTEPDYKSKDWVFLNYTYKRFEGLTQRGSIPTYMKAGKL

[27] = biological target: 468 kinases including some pathogenic mutants (Homo sapiens, UniProt Q9Y2I7); details: PIKFYVE (Entrez PIKFYVE), 1000 nM; read-out: Percent Control
Chain of 468 kinases including some pathogenic mutants (Homo sapiens, UniProt Q9Y2I7) (Q9Y2I7 whole entry, change not shown): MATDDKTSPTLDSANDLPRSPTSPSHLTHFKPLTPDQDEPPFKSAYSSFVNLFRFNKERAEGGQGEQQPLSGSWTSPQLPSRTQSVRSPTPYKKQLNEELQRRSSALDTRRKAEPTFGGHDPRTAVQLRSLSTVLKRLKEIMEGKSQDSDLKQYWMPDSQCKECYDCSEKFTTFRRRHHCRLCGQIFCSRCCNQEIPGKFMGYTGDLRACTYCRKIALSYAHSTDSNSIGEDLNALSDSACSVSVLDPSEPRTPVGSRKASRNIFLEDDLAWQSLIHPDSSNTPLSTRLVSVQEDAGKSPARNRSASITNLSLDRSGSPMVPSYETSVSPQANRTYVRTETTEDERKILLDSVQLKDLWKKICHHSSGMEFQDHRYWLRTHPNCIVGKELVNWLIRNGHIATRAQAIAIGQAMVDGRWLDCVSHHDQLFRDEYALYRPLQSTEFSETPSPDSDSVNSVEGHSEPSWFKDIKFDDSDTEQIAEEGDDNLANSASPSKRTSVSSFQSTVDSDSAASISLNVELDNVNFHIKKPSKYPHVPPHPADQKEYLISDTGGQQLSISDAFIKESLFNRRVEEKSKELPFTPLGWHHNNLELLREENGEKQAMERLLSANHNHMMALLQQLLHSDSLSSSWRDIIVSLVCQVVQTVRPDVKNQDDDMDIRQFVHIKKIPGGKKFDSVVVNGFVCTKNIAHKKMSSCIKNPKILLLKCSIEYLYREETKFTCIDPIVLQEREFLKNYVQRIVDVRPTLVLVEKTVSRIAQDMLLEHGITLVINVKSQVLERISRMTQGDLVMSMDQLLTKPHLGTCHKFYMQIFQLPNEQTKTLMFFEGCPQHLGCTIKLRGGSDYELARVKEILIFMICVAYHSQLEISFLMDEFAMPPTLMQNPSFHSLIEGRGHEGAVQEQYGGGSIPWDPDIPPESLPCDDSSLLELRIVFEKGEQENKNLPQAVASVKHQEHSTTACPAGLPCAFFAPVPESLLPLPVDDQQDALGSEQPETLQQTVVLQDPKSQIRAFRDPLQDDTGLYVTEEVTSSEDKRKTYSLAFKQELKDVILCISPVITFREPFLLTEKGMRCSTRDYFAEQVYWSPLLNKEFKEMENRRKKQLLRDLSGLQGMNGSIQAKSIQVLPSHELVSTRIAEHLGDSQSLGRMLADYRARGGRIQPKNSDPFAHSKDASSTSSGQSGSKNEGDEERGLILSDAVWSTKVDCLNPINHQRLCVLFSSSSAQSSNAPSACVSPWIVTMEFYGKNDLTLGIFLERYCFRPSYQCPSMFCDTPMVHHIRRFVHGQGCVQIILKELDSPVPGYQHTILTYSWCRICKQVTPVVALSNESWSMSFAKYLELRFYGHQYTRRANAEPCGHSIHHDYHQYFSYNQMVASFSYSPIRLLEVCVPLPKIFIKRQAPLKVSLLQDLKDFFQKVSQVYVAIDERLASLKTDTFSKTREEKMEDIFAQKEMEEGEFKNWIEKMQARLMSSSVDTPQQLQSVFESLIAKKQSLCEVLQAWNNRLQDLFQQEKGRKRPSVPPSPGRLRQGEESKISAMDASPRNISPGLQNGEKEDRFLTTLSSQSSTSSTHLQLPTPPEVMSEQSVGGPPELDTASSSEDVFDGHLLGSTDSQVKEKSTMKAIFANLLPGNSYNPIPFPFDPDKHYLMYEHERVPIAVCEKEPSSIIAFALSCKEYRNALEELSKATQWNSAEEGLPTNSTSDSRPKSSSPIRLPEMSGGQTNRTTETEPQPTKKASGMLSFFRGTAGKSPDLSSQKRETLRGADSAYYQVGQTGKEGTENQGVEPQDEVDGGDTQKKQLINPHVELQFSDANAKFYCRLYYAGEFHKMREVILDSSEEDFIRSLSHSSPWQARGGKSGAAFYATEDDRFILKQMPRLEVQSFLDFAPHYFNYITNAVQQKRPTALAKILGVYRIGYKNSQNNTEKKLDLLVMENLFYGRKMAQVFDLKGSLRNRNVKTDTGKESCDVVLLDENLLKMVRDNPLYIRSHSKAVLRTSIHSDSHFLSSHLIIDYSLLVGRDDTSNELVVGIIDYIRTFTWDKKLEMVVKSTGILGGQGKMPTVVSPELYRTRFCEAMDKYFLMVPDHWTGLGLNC

[28] = biological target: 468 kinases including some pathogenic mutants (Homo sapiens, UniProt Q9Y6E0); details: MST3 (Entrez STK24), 100 nM; read-out: Percent Control

CN1C(=O)[C@@H](N2CCc3c(nn(Cc4ccccc4)c3C(N)=O)C2=O)COc2cc(Cl)ccc21 [Compound 10, (S)-2-benzyl-6-(8-chloro-5-methyl-4-oxo-2,3,4,5-tetrahydrobenzo[b][1,4]oxazepin-3-yl)-7-oxo-4,5,6,7-tetrahydro-2H-pyrazolo[3,4-c]pyridine-3-carboxamide]
remaining activity at 0.1 µM [1]: 60%
remaining activity at 1 µM [2]: 100%
remaining activity at 0.1 µM [3]: 100%
Percent Control ([4]; listed as LIJTF500025): 88%
remaining activity at 0.1 µM ([4]; read-out: Percent Control): 71%
remaining activity at 1 µM [5]: 100%
remaining activity at 0.1 µM [6]: 99%
remaining activity at 0.1 µM [7]: 82%
remaining activity at 0.1 µM [8]: 78%
remaining activity at 0.1 µM [9]: 72%
remaining activity at 0.1 µM [10]: 78%
remaining activity at 1 µM [11]: 100%
remaining activity at 1 µM [12]: 100%
remaining activity at 0.1 µM [13]: 100%
remaining activity at 0.1 µM [14]: 77%
remaining activity at 0.1 µM [15]: 88%
remaining activity at 0.1 µM [16]: 89%
remaining activity at 0.1 µM [17]: 79%
remaining activity at 0.1 µM [18]: 87%
remaining activity at 1 µM [19]: 100%
remaining activity at 0.1 µM [20]: 77%
remaining activity at 0.1 µM [21]: 77%
remaining activity at 0.1 µM [22]: 97%
remaining activity at 0.1 µM [23]: 82%
remaining activity at 0.1 µM [24]: 100%
remaining activity at 1 µM [25]: 100%
remaining activity at 0.1 µM [26]: 71%
remaining activity at 1 µM [27]: 100%
remaining activity at 0.1 µM [28]: 97%
